Where two headings read alike, the source gives them in different places.
Tests used:
[1] = Pharmacokinetic evaluation, oral exposure in rats; format: in vivo; details: male Sprague-Dawley rats, single oral dose 10 mg/kg via oral gavage, plasma
Procedure: Pharmacokinetic studies of select compounds were performed to assess the pharmacokinetic properties. Male Sprague-Dawley rats were administered a single oral dose of the test compound at 10 mg/kg (dose concentration: 2 mg/mL, dose volume: 5 ml/kg) via oral gavage. Blood samples were collected via jugular vein at pre-dose, post-dose 5 min, 15 min, 30 min, 1 h, 2 h, 4 h, 6 h, 8 h, 10 h and 24 h, and centrifuged (8000 rpm for 6 minutes at 2-8° C.). The resulting plasma fractions were analyzed by LC/MS/MS to determine the concentration of the test compound.

human Plasma Kallikrein [2] = target: T1, human Plasma Kallikrein (Homo sapiens (Human), UniProt P03952); experiment: In vitro enzyme inhibition of human plasma kallikrein (Pro-Phe-Arg-AMC cleavage); format: biochemical; details: human plasma kallikrein, PFR-AMC substrate, 37° C.; read-out: hPK IC50
T1 sequence (P03952 391-638 limits assumed): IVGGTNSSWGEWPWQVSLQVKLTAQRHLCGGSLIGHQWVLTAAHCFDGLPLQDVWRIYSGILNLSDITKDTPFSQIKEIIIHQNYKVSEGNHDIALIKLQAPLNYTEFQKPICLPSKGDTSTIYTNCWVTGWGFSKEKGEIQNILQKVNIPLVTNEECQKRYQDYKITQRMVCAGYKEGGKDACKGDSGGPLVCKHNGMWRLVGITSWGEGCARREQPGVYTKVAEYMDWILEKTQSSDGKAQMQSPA
T1 sequence (P03952 20-390 partner limits assumed): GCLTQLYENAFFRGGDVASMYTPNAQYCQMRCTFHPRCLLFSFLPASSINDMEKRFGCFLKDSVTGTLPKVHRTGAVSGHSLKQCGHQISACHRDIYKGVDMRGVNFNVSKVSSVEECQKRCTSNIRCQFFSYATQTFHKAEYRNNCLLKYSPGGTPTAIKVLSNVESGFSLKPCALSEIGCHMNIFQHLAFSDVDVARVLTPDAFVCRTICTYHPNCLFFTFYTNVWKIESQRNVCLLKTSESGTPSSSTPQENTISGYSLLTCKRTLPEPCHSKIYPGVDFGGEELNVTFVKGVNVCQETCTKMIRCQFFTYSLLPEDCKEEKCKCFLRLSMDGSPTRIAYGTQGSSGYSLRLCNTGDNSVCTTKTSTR
Outline: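 Human plasma kallikrein preincubated 5 min at 37 °C with compound in 50 mM Tris-HCl pH 7.5, 150 mM NaCl, 0.01% Triton X-100. Reaction started with Pro-Phe-Arg-AMC, fluorescence read every 43 s for 1 h at 37 °C. IC50 from highest mean velocity over 20 reads (~15 min).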

human Plasma Kallikrein [3] = target: T1, human Plasma Kallikrein; experiment: Human whole blood kallikrein inhibition (ellagic acid-activated human plasma, Z-FR-2-AMC substrate); format: biochemical
Procedure: The ability of the compounds disclosed herein to inhibit human plasma kallikrein activity was quantified according to the procedures below.
All dilutions were prepared in an assay buffer comprising 50 mM Tris-HCl pH 7.2, 150 mM NaCl, and 0.01% Triton X-100.
Human plasma was thawed on ice and centrifuged for 15 min at 4° C. to remove platelets. A 1 mM stock solution of ellagic acid was diluted to 8 μM and mixed with human plasma, after removing platelets, at a ratio of 1:0.8. The mixture of human plasma and ellagic acid was further diluted 32-fold in the assay buffer, to yield the final mixture for use in the inhibition assay.
A 22.5 μL volume of the final mixture of human plasma and ellagic acid was added to a 96-well microwell plate and the plate was incubated for 15 min at 37° C.
The test compound solution was prepared to provide final concentrations of 20 μM, 5 μM, 1.25 μM, 312.5 nM, 78.125 nM, 19.531 nM, 4.883 nM, 1.221 nM, 0.305 nM, and 0.076 nM. Each test compound concentration was tested in duplicates.
In addition to the inhibitor control and test wells, the 96 well assay plate included positive control wells which contain the mixture of human plasma and ellagic acid without test compounds, and background wells which contain neither the mixture of human plasma and ellagic acid nor the test compounds. The total volume of liquid in positive control and background wells was brought up to 35 μL using the assay buffer.
The assay plate containing test compounds mixed with human plasma and ellagic acid and appropriate controls was incubated at 37° C. for 5 min. A 10 mM stock solution of substrate Z-FR-2-AMC was diluted to 133.2 μM in the assay buffer, and 15 μL of the diluted substrate was added to each well, to yield a final substrate concentration of 40 μM in each well. The reagents were mixed by shaking the plate gently for 30 sec.
The enzyme reaction was quantified by immediate kinetic reading of the assay plate using excitation/emission wavelengths of 330 nm/440 nm respectively. Fluorescence intensity was recorded for 60 min, using a time interval of 43 sec.
The inhibition activity of the test compounds were evaluated using the IC50 values, calculated according to the dose-response curve of the test compounds, fitted using the “log(inhibitor)−response(variable slope)” equation in GraphPadPrism software (GraphPad Software, Inc.).
The percentage inhibition (EC50) was calculated using the following equation:
[formula] where, Mean(BG) is the average value of the fluorescence intensity of the background wells and Mean(PC) is the average value of the fluorescence intensity of the positive control wells.

[4] = human plasma activated with ellagic acid, Z-FR-2-AMC 40 μM, 37° C., read-out: HWB EC50

Compound	AUC ([1]; rat, read-out: AUC) [ng·h/mL]	IC50 (human Plasma Kallikrein [2]) [nM]	EC50 (human Plasma Kallikrein [3]; [4]) [nM]	EC50 (human Plasma Kallikrein [3]) [nM]	AUC [1]
Cc1cc(N)nc(C)c1CNC(=O)c1ncc(Cc2ccc3ncc(Cl)cc3c2)o1 [Example 31, N-((6-amino-2,4-dimethylpyridin-3-yl)methyl)-5-((3-chloroquinolin-6-yl)methyl)oxazole-2-carboxamide]	1000 to 10000	< 100	< 100		
Cc1nc(N)ccc1CNC(=O)c1nn(Cc2ccc3ncc(Cl)cc3c2)c2ccc(=O)[nH]c12 [Example 139, N-((6-amino-2-methylpyridin-3-yl)methyl)-1-((3-chloroquinolin-6-yl)methyl)-5-oxo-4,5-dihydro-1H-pyrazolo[4,3-b]pyridine-3-carboxamide]	100 to 1000	< 100		< 100	
COc1cc2c(C(=O)NCc3c(C)cc(N)nc3C)nn(Cc3ccc4ncc(Cl)cc4c3)c2cn1 [Example 122, N-((6-amino-2,4-dimethylpyridin-3-yl)methyl)-1-((3-chloroquinolin-6-yl)methyl)-5-methoxy-1H-pyrazolo[3,4-c]pyridine-3-carboxamide]	100 to 1000	< 100		< 100	
N-((6-amino-2,4-dimethylpyridin-3-yl)methyl)-1-((3-chloroquinolin-6-yl)methyl)-3-cyano-1H-pyrazole-4-carboxamide [Example 26]		< 100	100 to 1000		B (>100 ng · h/mL to ≤1000 ng · h/mL)
Cc1nc(N)ccc1CNC(=O)c1cn(Cc2ccc3ncc(C4CC4)cc3c2)nc1C#N [Example 66, N-((6-amino-2-methylpyridin-3-yl)methyl)-3-cyano-1-((3-cyclopropylquinolin-6-yl)methyl)-1H-pyrazole-4-carboxamide]	100 to 1000	< 100	< 100		
Cc1cc(N)nc(C)c1CNC(=O)c1cn(Cc2ccc3ncc(Cl)cc3c2)c2ncccc12 [Example 12, N-((6-amino-2,4-dimethylpyridin-3-yl)methyl)-1-((3-chloroquinolin-6-yl)methyl)-1H-pyrrolo[2,3-b]pyridine-3-carboxamide]	100 to 1000	< 100		< 100	
Cc1cc(N)nc(C)c1CNC(=O)c1cn(Cc2ccc3ncc(Cl)cc3c2)nc1C [Example 38, N-((6-amino-2,4-dimethylpyridin-3-yl)methyl)-1-((3-chloroquinolin-6-yl)methyl)-3-methyl-1H-pyrazole-4-carboxamide]	1000 to 10000	< 100	< 100		
Cc1cc(N)nc(C)c1CNC(=O)c1cn(Cc2ccc3ncc(Cl)cc3c2)nc1C(F)(F)F [Example 15, N-((6-amino-2,4-dimethylpyridin-3-yl)methyl)-1-((3-chloroquinolin-6-yl)methyl)-3-(trifluoromethyl)-1H-pyrazole-4-carboxamide]	1000 to 10000	< 100	< 100		
Cc1cc(N)nc(C)c1CNC(=O)c1nn(Cc2ccc3ncc(Cl)cc3c2)c2ccccc12 [Example 13, N-((6-amino-2,4-dimethylpyridin-3-yl)methyl)-1-((3-chloroquinolin-6-yl)methyl)-1H-indazole-3-carboxamide]	100 to 1000	< 100		< 100	
Cc1cc(N)nc(C)c1CNC(=O)c1cn(Cc2ccc3ncc(Cl)cc3c2)c2cnc(C#N)cc12 [Example 134, N-((6-amino-2,4-dimethylpyridin-3-yl)methyl)-1-((3-chloroquinolin-6-yl)methyl)-5-cyano-1H-pyrrolo[2,3-c]pyridine-3-carboxamide]		< 100		< 100	BLQ
Cc1cc(N)nc(C)c1CNC(=O)c1ncn(Cc2ccc3ncc(Cl)cc3c2)n1 [Example 4, N-((6-amino-2,4-dimethylpyridin-3-yl)methyl)-1-((3-chloroquinolin-6-yl)methyl)-1H-1,2,4-triazole-3-carboxamide]	< 100	< 100	< 100		
Cc1cc(N)nc(C)c1CNC(=O)c1cn(Cc2ccc3ncc(Cl)cc3c2)c2nccc(C#N)c12 [Example 127, N-((6-amino-2,4-dimethylpyridin-3-yl)methyl)-1-((3-chloroquinolin-6-yl)methyl)-4-cyano-1H-pyrrolo[2,3-b]pyridine-3-carboxamide]	100 to 1000	< 100		< 100	
Cc1cc(N)nc(C)c1CNC(=O)c1nnc(Cc2ccc3ncc(Cl)cc3c2)[nH]1 [Example 96, N-((6-amino-2,4-dimethylpyridin-3-yl)methyl)-5-((3-chloroquinolin-6-yl)methyl)-4H-1,2,4-triazole-3-carboxamide]	> 10000	< 100	< 100		
Cc1cnc2c(C(N)=O)cc(Cn3cc(C(=O)NCc4c(C)cc(N)nc4C)c(C#N)n3)cc2c1 [Example 78, 6-((4-(((6-amino-2,4-dimethylpyridin-3-yl)methyl)carbamoyl)-3-cyano-1H-pyrazol-1-yl)methyl)-3-methylquinoline-8-carboxamide]	< 100	< 100	< 100		
Cc1cc(N)nc(C)c1CNC(=O)c1cn(Cc2ccc3ncc(Cl)cc3c2)c2ncncc12 [Example 32, N-((6-amino-2,4-dimethylpyridin-3-yl)methyl)-7-((3-chloroquinolin-6-yl)methyl)-7H-pyrrolo[2,3-d]pyrimidine-5-carboxamide]	< 100	< 100		< 100	
Cc1cc(N)nc(C)c1CNC(=O)c1cn(Cc2ccc3ncc(Cl)cc3c2)nc1N [Example 17, 3-amino-N-((6-amino-2,4-dimethylpyridin-3-yl)methyl)-1-((3-chloroquinolin-6-yl)methyl)-1H-pyrazole-4-carboxamide]	100 to 1000	< 100	< 100		
Cc1cc(N)nc(C)c1CNC(=O)c1cn(Cc2ccc3ncc(Cl)cc3c2)c2ccncc12 [Example 35, N-((6-amino-2,4-dimethylpyridin-3-yl)methyl)-1-((3-chloroquinolin-6-yl)methyl)-1H-pyrrolo[3,2-c]pyridine-3-carboxamide]		< 100		< 100	BLQ
Cc1cnc2c(C(C)(C)O)cc(Cn3ncc(C(=O)NCc4c(C)cc(N)nc4C)c3C#N)cc2c1 [Example 67, N-((6-amino-2,4-dimethylpyridin-3-yl)methyl)-5-cyano-1-((8-(2-hydroxypropan-2-yl)-3-methylquinolin-6-yl)methyl)-1H-pyrazole-4-carboxamide]	< 100	1000 to 10000	< 100		
Cc1cc(N)nc(C)c1CNC(=O)c1cn(Cc2cc(F)c3ncc(Cl)cc3c2)nc1C#N [Example 52, N-((6-amino-2,4-dimethylpyridin-3-yl)methyl)-1-((3-chloro-8-fluoroquinolin-6-yl)methyl)-3-cyano-1H-pyrazole-4-carboxamide]	100 to 1000	< 100	< 100		
Cc1cc(N)nc(C)c1CNC(=O)c1cn(Cc2ccc3ncc(Cl)cc3c2)nc1CN [Example 27, N-((6-amino-2,4-dimethylpyridin-3-yl)methyl)-3-(aminomethyl)-1-((3-chloroquinolin-6-yl)methyl)-1H-pyrazole-4-carboxamide]	< 100	< 100	< 100		
